{"source": "patent US7671211B1", "about": "“Substrates for thioredoxin reductase” (priority 1999, dated 2010)", "key": {"[1]": {"target": "T1, human thioredoxin reductase (Homo sapiens, UniProt Q16881)", "T1 construct": "Thioredoxin reductase (TrxR) from human placenta were purified to homogeneity; from tissue; host or cells: human placenta", "T1 sequence (Q16881 1-499 isoform Q16881-5)": "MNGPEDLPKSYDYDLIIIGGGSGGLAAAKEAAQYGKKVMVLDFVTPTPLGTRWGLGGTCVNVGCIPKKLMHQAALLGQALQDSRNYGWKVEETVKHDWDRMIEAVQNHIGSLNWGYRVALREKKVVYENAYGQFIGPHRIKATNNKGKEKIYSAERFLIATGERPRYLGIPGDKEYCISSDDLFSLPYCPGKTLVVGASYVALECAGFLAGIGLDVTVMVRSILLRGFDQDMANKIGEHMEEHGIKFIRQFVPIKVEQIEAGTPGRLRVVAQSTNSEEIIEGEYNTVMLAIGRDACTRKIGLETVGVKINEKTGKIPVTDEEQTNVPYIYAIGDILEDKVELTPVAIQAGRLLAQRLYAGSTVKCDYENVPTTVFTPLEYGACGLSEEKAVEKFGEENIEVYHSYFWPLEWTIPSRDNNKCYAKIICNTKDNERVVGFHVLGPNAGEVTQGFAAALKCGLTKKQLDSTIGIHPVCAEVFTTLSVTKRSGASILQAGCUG", "assay": "Reduction of hydrogen peroxide by human thioredoxin reductase (hydrogen peroxide reductase activity)", "assay_type": "biochemical", "details": "for effect on reaction rate of hydrogen peroxide reduction: 4.5 μM Trx; for turnover of enzyme (hydrogen peroxide reduction) / fold increase of hydrogen peroxide reductase activity: 0.5 mM hydrogen peroxide, 17 nM human TrxR; for fold increase of hydrogen peroxide reductase activity: versus enzyme alone", "method": "(§1) Measurements of thioredoxin reductase activity were performed in TF buffer (50 mM Tris-Cl, 1 mM EDTA, pH 7.5) with 100 μM NADPH and a given amount of Compound A. Reactions were carried out with addition of 5 or 10 μl of stock solution of thioredoxin reductase in a final volume of 0.55 ml. Cuvettes used as reference contained the same amount of DMSO as in the samples and also thioredoxin reductase. Absorbance of the control cuvette was automatically subtracted by the spectrophotometer. The reactions were followed at 340 nm.\n[…] The absorbance at 340 nm was determined against a blank with 17 nM thioredoxin reductase but without hydrogen peroxide. As a result, with 0.50 mM hydroperoxide a turnover number of 30×min^−1 was calculated. Addition of 2 μM compound A stimulated the activity with the enzyme which increased its activity to a turnover of 450×min^−1 or 15-fold. […] Thus, Compound A acts to dramatically increase the hydrogen peroxide reductase activity of thioredoxin reductase and also acts as a thioredoxin peroxidase mimic.\nAddition of 4.5 μM thioredoxin to 17 nM thioredoxin reductase stimulated the reduction of hydrogen peroxide. […] The same conditions as in FIG. 5 were applied with only 17 nM thioredoxin reductase (●) and addition of 4.5 μM Trx (Δ). Then […] was added to adjust the final compound A concentration to […].\nThus compound A increased activity of the enzyme with lower more physiologically relevant concentrations, and this increase was about 25-fold. […] Activity is expressed as the variation ratio per min, ΔA340/min. […]"}, "[2]": {"target": "T2, calf thymus thioredoxin reductase (Bos taurus, UniProt O62768)", "T2 construct": "Thioredoxin reductase (TrxR) from calf thymus or human placenta were purified to homogeneity; from tissue; host or cells: calf thymus", "T2 sequence (O62768 1-499)": "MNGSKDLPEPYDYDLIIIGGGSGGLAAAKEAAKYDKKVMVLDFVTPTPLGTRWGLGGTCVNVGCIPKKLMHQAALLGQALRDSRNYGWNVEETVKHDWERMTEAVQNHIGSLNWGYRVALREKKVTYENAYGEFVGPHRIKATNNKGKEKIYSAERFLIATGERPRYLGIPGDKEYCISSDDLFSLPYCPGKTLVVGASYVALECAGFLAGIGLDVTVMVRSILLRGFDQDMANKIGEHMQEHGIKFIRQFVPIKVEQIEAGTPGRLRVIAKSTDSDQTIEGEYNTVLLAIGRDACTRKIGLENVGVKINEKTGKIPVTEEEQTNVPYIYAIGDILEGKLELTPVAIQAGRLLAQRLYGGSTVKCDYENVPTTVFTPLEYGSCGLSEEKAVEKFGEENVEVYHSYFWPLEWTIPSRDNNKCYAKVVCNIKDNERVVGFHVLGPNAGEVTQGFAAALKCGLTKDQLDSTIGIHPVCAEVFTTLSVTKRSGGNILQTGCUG", "assay": "Reduction of DTNB by thioredoxin reductase", "assay_type": "biochemical", "method": "(§2) The activity of thioredoxin reductase was determined in the insulin assay. A mixture of 100 mM potassium phosphate (pH 7.0), 2 mM NADPH, and 0.16 mM insulin was added with Compound A and thioredoxin, and then with thioredoxin reductase in a total volume of 0.55 ml for the reaction. The progress of reduction of insulin disulfides was followed at 340 nm. Generated sulfhydryl or selenol groups were measured at 412 nm by addition of 0.50 ml of a mixture of 6 M guanidine-HCl, 0.20 M Tris-Cl (pH 8.0), 1 mM DTNB and calculated using a molar extinction coefficient of 13,600 M^−1cm^−1. DTNB reducing activity of thioredoxin reductase by using NADPH was measured at 412 nm in 100 mM potassium phosphate (pH 7.0) containing 10 mM EDTA, 0.2 mM NADPH, 5 mM DTNB and 0.1 mg per ml of bovine serum albumin.\n(§3) To test whether or not Compound A inhibited thioredoxin reductase, enzyme assays were performed.\n(§4) Then 0.5 ml of a mixture containing 6 M guranidine HCl, 0.20 M Tris-HCl (pH 8.0) and 1 mM DTNB was added to stop the reaction and the absorbance at 412 nm was used to calculate the amount of SH-groups generated in insulin. In (B), 10 nM calf thymus thioredoxin reductase was preincubated with or without 50 μM compound A and 100 μM NADPH for 1 h. Then 10 μl of the resulting solution was added to 500 μl of a mixture of 0.1 M Tris-HCl (pH 8.0), 1 mM EDTA and 5 mM DTNB to determine activity at 412 nm. Activity is expressed as the amount of SH-groups generated (μM) after 3 min."}, "E.coli Trx-(SH)2": {"target": "E.coli Trx-(SH)2 (Escherichia coli, UniProt P0AA25)", "sequence (P0AA25 whole entry)": "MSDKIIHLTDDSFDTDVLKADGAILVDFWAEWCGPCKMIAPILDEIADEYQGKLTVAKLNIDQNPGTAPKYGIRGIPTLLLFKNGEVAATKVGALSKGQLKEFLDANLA", "assay": "Oxidation of E.coli Trx-(SH)2 by compound A determined by fluorescence spectroscopy", "assay_type": "biochemical", "details": "0.1 μM Trx-(SH)2 mixed with 0.1 μM compound A, pH 7.5, 22° C.", "method": "Protein fluorescence was measured with a thermostated SPEX-Fluoro Max instrument. Trx-(SH)2 was prepared from E.coli Trx-S2 640 μM which was incubated at room temperature for 20 min with 10 mM DTT. DTT was subsequently removed by gel chromatography (on a NAP-5 column (Pharmacia) using N2 equilibrated buffer). Trx-(SH)2 was mixed with Compound A dissolved in a total volume of 3 ml of a mixture (pH 7.5) of 0.1 M potassium phosphate and 1 mM EDTA, and fluorescence was immediately measured in the spectrofluorimeter at 22° C. Excitation of fluorescence was at 290 nm and emission spectra from 300 to 500 nm were recorded. Fluorescence at 340 nm was used to follow the oxidation of Trx-(SH)2 to record the rate of the reaction.\nMammalian and E.coli Trx have the same active site GPC and reactivity with disulfides. […] N2 equilibrated 0.1 M potassium phosphate was added with 0.1 μM (1.2 μg/ml) of E.coli Trx-(SH)2 and then with 1 mM EDTA (pH 7.5) to prepare a sample. Fluorescence of the sample was excited at 290 nm. The […] at the wavelength range from 300 to 500 nm was recorded. Then 0.1 μM of compound A was added and a spectrum was recorded. […] This is the fastest reaction for oxidation of reduced thioedoxin by a low molecular weight compound."}, "[3]": {"target": "T1, human thioredoxin reductase", "assay": "Reduction of hydrogen peroxide by human thioredoxin reductase (hydrogen peroxide reductase activity)", "assay_type": "biochemical", "details": "hydrogen peroxide 2 mM, TrxR 17 nM, human Trx 5 μM"}, "[4]": {"target": "T1, human thioredoxin reductase", "assay": "Reduction of Compound A by human thioredoxin reductase (NADPH oxidation at 340 nm, selenol detection with DTNB)", "assay_type": "biochemical", "method": "as §1\nCompound A absorbs at 340 nm with a 4,000 M^−1cm^−1 molar extinction coefficient, and N-phenyl-2-carboxamidobenzene selenol, the reduction product of selenol by a dithiol, has half the absorption (2000 M^−1cm^−1) at 340 nm. The formation of the compound A-selenol was confirmed by measuring absorption spectra in the presence or absence of excess DTT. In calculations of the formation of compound A-selenol, a molar extinction coefficient of 8,200 M^−1cm^−1 was used since oxidation of NADPH to NADP^+ yields 6,200 M^−1cm^−1.\nCompound A 50 μM (●) or 100 μM (□) was dissolved in 0.55 ml of a solution containing 50 mM Tris-Cl, 1 mM EDTA (pH 7.5) and 100 μM NADPH, and mixed with 40 nM human thioredoxin reductase. Absorbance at 340 nm was measured and corrected against the blank value (with the same amounts of enzyme, but without compound A). The same experiments using 50 μm (●) and 100 μM (Δ) Compound A mixed with 17 nM enzyme were performed.\nThe reaction was fast since with 50 μM Compound A the reaction was complete after 1 min. […] When 6 M guanidine hydrochloride containing DTNB was added to the cuvette at 7 min, an absorbance at 412 nm of 0.400 was measured indicating formation of selenol groups. Compound A itself gave no reaction with DTNB. The reaction with 100 μM compound A was seemingly slower from the decrease in absorbance at 340 nm using 40 nM enzyme."}, "[5]": {"target": "T2, calf thymus thioredoxin reductase", "assay": "Trx-catalyzed insulin disulfide reduction assay", "assay_type": "biochemical", "details": "for SH-group: 5 μM human Trx, 10 nM calf thymus thioredoxin reductase, 3 min, 20° C.; for Activity: relative to 0 μM = 100", "method": "as §2, §3, §4"}, "[6]": {"target": "T1, human thioredoxin reductase", "details": "human Trx-S2, comparison value, cited from earlier work"}, "[7]": {"details": "2 μM compound A plus 4.5 μM human Trx"}}, "note": "Read-outs that look alike come from different tables or passages of the source."}
{"molecule": "O=c1c2ccccc2[se]n1-c1ccccc1", "note": "[Compound A, 2-phenyl-1,2-benzisoselenazol-3(2H)-one]", "values": [{"measurement": "effect on reaction rate of hydrogen peroxide reduction", "setting": "[1]; 0.5 μM compound A, 17 nM thioredoxin reductase", "result": "increased the reaction rate"}, {"measurement": "effect on reaction rate of hydrogen peroxide reduction", "setting": "[1]; 5.5 μM compound A, 17 nM thioredoxin reductase", "result": "stimulated strongly"}, {"measurement": "fold increase of enzyme activity at low hydrogen peroxide concentration", "setting": "[1]; 100 μM hydrogen peroxide, 17 nM thioredoxin reductase, 2 μM Compound A", "result": "about 25 fold"}, {"measurement": "turnover of enzyme (hydrogen peroxide reduction)", "setting": "[1]; 2 μM compound A", "result": 450, "unit": "min⁻¹"}, {"measurement": "turnover of enzyme (hydrogen peroxide reduction)", "setting": "[1]; [7]", "result": 900, "unit": "min⁻¹"}, {"measurement": "fold increase of hydrogen peroxide reductase activity", "setting": "[1]; [7]", "result": 30, "unit": "fold"}, {"measurement": "fold increase of hydrogen peroxide reductase activity", "setting": "[1]; 2 μM compound A", "result": 15, "unit": "fold"}, {"measurement": "inhibition of thioredoxin reductase with DTNB as substrate", "setting": "[2]; 50 μM Compound A and 10 nM enzyme", "result": "No inhibition"}, {"measurement": "SH-group", "setting": "[2]; 50 μM Compound A preincubated with 10 nM enzyme and 100 μM NADPH for 1 h, after 3 min", "result": 7.5, "unit": "µM"}, {"measurement": "Activity", "setting": "[2]; 50 μM Compound A, preincubation 1 h, relative to 0 μM = 100", "result": 103, "unit": "%"}, {"measurement": "inhibition of the enzyme after preincubation with compound A", "setting": "[2]; preincubation in the presence or absence of NADPH", "result": "did not inhibit"}, {"measurement": "oxidation rate of Trx-(SH)2", "setting": "E.coli Trx-(SH)2", "result": "> 2e+07", "unit": "M⁻¹ s⁻¹"}, {"measurement": "turnover of Compound A", "setting": "[3]", "result": 23, "unit": "min⁻¹"}, {"measurement": "enzyme turnover", "setting": "[3]; compound A", "result": 1328, "unit": "min⁻¹"}, {"measurement": "NADPH oxidation rate", "setting": "[3]; same rate with 1, 2 and 5 μM compound A", "result": 23, "unit": "µM/min"}, {"measurement": "Kcal", "setting": "[4]; 15 nM enzyme, 5, 10 and 20 μM compound A", "result": "1000 ± 300", "unit": "min⁻¹"}, {"measurement": "Km", "setting": "[4]; 15 nM enzyme, 5, 10 and 20 μM compound A, read-out: Km-value as substrate for thioredoxin reductase", "result": "< 5", "unit": "µM"}, {"measurement": "time until reaction complete", "setting": "[4]; 50 μM Compound A, 40 nM human thioredoxin reductase, 100 μM NADPH", "result": 1, "unit": "min"}, {"measurement": "absorbance at 412 nm after DTNB addition (formation of selenol groups)", "setting": "[4]; 6 M guanidine hydrochloride containing DTNB added at 7 min, 50 μM Compound A, 40 nM enzyme", "result": 0.400}, {"measurement": "effect in insulin disulfide reduction assay using thioredoxin and thioredoxin reductase", "setting": "[5]", "result": "only a small effect"}, {"measurement": "SH-group", "setting": "[5]; 5 μM Compound A", "result": 70.6, "unit": "µM"}, {"measurement": "Activity", "setting": "[5]; 5 μM Compound A", "result": 89, "unit": "%"}, {"measurement": "SH-group", "setting": "[5]; 10 μM Compound A", "result": 68.4, "unit": "µM"}, {"measurement": "Activity", "setting": "[5]; 10 μM Compound A", "result": 88, "unit": "%"}]}
{"molecule": "human Trx-S2: oxidized human thioredoxin, protein substrate of thioredoxin reductase, used for comparison of Km and Kcal (protein, UniProt P10599 2-105, looked up, oxidized, oxidized human thioredoxin, protein substrate of thioredoxin reductase, used for comparison of Km and Kcal) Thioredoxin: VKQIESKTAFQEALDAAGDKLVVVDFSATWCGPCKMIKPFFHSLSEKYSNVIFLEVDVDDCQDVASECEVKCMPTFQFFKKGQKVGEFSGANKEKLEATINELV", "values": [{"measurement": "Kcal", "setting": "[6]", "result": 3000, "unit": "min⁻¹"}, {"measurement": "Km", "setting": "[6]; read-out: Km-value as substrate for thioredoxin reductase", "result": 2.5, "unit": "µM"}]}
